{"source": "ChEMBL document CHEMBL1201862", "about": "“PubChem BioAssay data set” (2004)", "key": {"[1]": {"biological_target": "T1, E3 ubiquitin-protein ligase XIAP (Homo sapiens, UniProt P98170)", "T1 sequence (P98170 whole entry)": "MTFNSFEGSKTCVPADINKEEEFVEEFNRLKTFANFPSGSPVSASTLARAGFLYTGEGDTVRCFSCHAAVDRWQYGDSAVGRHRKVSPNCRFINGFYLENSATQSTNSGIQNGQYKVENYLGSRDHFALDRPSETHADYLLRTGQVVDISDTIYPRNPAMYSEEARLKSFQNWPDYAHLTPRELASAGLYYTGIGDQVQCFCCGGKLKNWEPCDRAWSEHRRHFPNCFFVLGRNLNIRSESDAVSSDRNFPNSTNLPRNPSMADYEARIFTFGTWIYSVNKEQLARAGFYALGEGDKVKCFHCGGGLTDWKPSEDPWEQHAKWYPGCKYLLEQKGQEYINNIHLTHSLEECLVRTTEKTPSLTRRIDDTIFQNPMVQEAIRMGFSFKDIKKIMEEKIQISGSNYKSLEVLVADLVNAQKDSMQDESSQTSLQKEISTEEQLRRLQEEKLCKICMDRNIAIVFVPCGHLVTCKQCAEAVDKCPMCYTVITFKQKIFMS", "test": "small molecules displacing peptide from XIAP – biochemical, IAP family, fluorescence polarization (AID 1018)", "format": "functional"}, "[2]": {"biological_target": "T1, E3 ubiquitin-protein ligase XIAP", "test": "Counter Screen using XIAP-Bir3 for Chemical Antagonists of Bir1/2 domains of IAP-family anti-apoptotic proteins. [Related pubchem assays (depositor defined):AID1018, AID1449, AID1514, AID1638, AID1749, AID1750, AID488957, AID488963]"}, "[3]": {"test": "A Cell Based Secondary Assay To Explore Cytotoxicity of Compounds that Sensitize Mycobacterium Tuberculosis to Beta-Lactam Antibiotics.", "format": "functional"}, "[4]": {"biological_target": "Heat shock protein HSP 90-alpha (Homo sapiens, UniProt P07900)", "format": "functional, organism-based"}, "[5]": {"biological_target": "G-protein coupled receptor 55 (Homo sapiens, UniProt Q9Y2T6)", "sequence (Q9Y2T6 whole entry)": "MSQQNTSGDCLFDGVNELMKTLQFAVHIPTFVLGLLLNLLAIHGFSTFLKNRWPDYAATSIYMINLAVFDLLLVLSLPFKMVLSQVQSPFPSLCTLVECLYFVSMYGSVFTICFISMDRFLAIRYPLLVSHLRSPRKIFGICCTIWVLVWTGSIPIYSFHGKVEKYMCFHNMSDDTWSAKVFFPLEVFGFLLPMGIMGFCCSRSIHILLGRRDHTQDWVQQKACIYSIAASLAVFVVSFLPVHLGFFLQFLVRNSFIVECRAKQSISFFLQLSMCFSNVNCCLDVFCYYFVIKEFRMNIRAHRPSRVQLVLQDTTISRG", "test": "inhibition of LPI-stimulated GPR55 beta-arrestin translocation – imaging, U2OS, beta-arrestin-GFP, LPI agonist, primary screen (AID 2013);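 also: antagonist potency measured as reduced agonist-driven arrestin aggregation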", "format": "functional"}, "Cytochrome P450 2D6 [6]": {"biological_target": "T2, Cytochrome P450 2D6 (Homo sapiens, UniProt P10635)", "T2 sequence (P10635 whole entry)": "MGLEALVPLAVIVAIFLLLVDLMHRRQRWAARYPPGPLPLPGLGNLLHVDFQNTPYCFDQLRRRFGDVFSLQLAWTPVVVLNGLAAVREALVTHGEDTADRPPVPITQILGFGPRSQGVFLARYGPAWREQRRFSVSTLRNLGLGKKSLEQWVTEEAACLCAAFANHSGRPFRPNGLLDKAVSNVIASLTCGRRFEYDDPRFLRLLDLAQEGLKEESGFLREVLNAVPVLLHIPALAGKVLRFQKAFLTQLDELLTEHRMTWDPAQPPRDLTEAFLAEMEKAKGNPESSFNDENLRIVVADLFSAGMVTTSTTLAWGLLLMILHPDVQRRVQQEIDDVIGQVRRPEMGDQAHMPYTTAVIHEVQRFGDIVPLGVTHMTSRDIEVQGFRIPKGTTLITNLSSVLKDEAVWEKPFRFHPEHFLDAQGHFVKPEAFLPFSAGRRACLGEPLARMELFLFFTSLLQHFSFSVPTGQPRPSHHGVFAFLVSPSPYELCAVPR", "test": "qHTS Assay for Inhibitors and Substrates of Cytochrome P450 2D6. [Related pubchem assays: 410 ]", "format": "ADME", "settings": "read-out: Potency"}, "cells": {"test": "cells", "format": "functional"}, "[7]": {"test": "microbe, parasite or virus in culture", "format": "functional", "settings": "Mycobacterium tuberculosis"}, "[8]": {"test": "THP-1 cell cytotoxicity, dose response, cytotoxicity control for non-replicating M. tuberculosis project (AID 489025)", "format": "functional"}, "Nonstructural protein 1": {"biological_target": "Nonstructural protein 1 (Influenza A virus, UniProt Q194T2)", "sequence (Q194T2 whole entry)": "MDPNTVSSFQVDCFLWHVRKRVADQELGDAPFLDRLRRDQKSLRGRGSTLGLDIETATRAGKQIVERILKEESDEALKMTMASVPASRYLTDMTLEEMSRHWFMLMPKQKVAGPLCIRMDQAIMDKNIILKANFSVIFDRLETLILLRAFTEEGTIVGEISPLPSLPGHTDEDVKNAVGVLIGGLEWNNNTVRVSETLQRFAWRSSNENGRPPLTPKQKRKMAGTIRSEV", "format": "functional, Influenza A virus (A/California/07/2009(H1N1))"}, "[9]": {"test": "Vero E6 cell cytotoxicity, dose response, cytotoxicity control for non-replicating M. tuberculosis project, secondary assay (AID 492998)", "format": "functional, VeroE6", "settings": "Vero C1008"}, "[10]": {"test_system": "Streptococcus sp. 'group A'", "test": "Streptococcus pyogenes SK(-)GAS viability under kanamycin – luminescence, BacTiterGlo, confirmation, counter-screen for streptokinase expression inhibitor project, dose response (AID 1900)", "format": "functional, organism-based"}, "Streptococcus": {"test_system": "Streptococcus", "test": "GAS UMAA2166 growth inhibition – luminescence, BacTiterGlo, counter-screen for streptokinase expression inhibitor project, dose response (AID 1915);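 also: potency for reduction of bacterial viability or growth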", "format": "functional, organism-based"}, "[11]": {"test": "HepG2 cell cytotoxicity, dose response, cytotoxicity control for non-replicating M. tuberculosis project (AID 489018)", "format": "functional", "settings": "Mycobacterium tuberculosis"}, "[12]": {"biological_target": "Peroxisome proliferator-activated receptor gamma/Nuclear receptor coactivator 2 (Homo sapiens, UniProt P37231)", "sequence (P37231 whole entry)": "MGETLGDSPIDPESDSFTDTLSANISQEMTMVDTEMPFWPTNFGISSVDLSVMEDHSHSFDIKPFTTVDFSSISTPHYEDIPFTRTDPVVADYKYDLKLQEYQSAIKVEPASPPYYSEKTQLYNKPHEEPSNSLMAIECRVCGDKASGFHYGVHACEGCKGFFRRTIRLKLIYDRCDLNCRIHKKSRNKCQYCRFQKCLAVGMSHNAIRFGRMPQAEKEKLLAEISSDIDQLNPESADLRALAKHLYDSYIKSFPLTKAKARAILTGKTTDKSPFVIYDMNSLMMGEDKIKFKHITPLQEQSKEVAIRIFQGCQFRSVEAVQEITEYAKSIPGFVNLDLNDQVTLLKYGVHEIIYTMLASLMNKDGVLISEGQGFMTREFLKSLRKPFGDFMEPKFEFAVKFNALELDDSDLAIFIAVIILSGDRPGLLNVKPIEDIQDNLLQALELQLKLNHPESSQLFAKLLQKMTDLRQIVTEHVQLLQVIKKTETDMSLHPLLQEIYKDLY", "sequence (Q15596 whole entry, further chain)": "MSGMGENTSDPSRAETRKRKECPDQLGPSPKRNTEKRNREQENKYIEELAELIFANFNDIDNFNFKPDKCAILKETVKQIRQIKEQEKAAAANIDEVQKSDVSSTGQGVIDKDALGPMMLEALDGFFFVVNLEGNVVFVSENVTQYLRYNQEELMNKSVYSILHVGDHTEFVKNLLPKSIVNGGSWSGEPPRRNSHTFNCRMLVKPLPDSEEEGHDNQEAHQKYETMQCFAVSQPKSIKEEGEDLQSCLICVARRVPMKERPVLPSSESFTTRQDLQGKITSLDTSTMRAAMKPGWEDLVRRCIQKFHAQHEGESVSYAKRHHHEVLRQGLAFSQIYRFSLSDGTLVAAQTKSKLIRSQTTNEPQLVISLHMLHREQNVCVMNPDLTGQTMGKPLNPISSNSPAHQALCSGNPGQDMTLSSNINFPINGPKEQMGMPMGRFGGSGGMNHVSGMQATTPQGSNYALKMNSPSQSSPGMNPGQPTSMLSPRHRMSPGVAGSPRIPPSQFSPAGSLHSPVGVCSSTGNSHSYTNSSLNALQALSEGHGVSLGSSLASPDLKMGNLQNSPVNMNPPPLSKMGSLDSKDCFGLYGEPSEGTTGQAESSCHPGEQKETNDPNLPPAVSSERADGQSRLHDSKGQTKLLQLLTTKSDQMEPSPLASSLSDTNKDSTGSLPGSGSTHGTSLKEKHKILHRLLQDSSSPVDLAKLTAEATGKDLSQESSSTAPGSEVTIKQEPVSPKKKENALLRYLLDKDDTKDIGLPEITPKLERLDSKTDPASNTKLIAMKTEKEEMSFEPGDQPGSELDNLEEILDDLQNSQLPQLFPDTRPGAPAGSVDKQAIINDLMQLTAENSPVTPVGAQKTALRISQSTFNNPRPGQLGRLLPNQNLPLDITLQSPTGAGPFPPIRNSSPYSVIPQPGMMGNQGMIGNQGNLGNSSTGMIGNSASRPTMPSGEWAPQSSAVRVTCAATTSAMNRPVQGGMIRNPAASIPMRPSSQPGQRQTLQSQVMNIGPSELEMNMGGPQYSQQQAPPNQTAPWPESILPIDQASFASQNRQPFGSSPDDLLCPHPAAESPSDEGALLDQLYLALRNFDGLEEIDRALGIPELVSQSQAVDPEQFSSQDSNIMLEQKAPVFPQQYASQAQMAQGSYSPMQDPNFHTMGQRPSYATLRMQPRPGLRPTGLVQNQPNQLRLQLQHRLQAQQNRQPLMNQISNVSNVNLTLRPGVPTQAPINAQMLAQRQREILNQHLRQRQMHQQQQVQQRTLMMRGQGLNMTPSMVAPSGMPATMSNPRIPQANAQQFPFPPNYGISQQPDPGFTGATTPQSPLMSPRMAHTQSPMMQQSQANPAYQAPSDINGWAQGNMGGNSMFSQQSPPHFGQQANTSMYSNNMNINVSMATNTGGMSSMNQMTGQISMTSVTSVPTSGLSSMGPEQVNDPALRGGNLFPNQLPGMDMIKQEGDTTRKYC", "test": "(§1) TR-FRET dose response biochemical High Throughput Screening assay for agonists of the steroid receptor coactivator 2 (SRC-2) recruitment by the peroxisome proliferator-activated receptor gamma (PPAR gamma): non-selective agonists. [Related pubchem assays: 1297, 1032 ]", "format": "functional"}, "[13]": {"biological_target": "Peroxisome proliferator-activated receptor gamma/Nuclear receptor coactivator 1 (Homo sapiens, UniProt P37231)", "test": "as §1, with “1 (SRC-1)” for “2 (SRC-2)”, “assays (depositor defined):AID1300, AID1808, AID504735, AID631]” for “assays: 1297, 1032 ]”", "format": "protein assay"}, "Cytochrome P450 2D6 [14]": {"biological_target": "T2, Cytochrome P450 2D6"}, "[15]": {"biological_target": "Peroxisome proliferator-activated receptor gamma/Nuclear receptor coactivator 3 (Homo sapiens, UniProt P37231)", "test": "as §1, with “3 (SRC-3)” for “2 (SRC-2)”, “1301 (Confirmation screen.), 1048 (Primary screen.)]” for “1297, 1032 ]”", "format": "functional"}, "Hexokinase HKDC1": {"biological_target": "T3, Hexokinase HKDC1 (Homo sapiens, UniProt Q2TB90)", "T3 sequence (Q2TB90 whole entry)": "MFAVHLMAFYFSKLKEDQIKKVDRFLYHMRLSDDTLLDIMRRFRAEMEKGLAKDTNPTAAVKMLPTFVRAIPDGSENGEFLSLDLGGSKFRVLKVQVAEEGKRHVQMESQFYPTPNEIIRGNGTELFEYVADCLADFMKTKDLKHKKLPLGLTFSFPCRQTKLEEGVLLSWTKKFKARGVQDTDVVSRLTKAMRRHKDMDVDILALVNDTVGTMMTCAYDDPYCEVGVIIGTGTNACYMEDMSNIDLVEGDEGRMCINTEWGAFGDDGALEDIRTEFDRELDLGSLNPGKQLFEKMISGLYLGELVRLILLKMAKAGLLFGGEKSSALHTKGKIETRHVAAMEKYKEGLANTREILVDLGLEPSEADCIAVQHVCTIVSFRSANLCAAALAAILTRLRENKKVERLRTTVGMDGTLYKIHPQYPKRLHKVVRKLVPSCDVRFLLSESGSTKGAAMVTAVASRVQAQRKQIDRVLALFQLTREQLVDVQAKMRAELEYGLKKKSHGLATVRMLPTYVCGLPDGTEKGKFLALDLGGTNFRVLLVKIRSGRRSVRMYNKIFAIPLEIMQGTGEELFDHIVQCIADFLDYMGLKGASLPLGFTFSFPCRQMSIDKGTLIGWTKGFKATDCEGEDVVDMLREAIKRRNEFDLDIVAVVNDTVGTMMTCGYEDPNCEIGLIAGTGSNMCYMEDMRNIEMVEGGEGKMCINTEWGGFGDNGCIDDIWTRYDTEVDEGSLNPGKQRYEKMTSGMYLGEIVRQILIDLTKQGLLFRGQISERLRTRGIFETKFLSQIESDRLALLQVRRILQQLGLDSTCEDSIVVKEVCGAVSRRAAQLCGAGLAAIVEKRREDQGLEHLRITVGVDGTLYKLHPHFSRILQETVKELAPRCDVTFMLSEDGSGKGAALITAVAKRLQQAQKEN", "test": "inhibition of HKDC1 glucose phosphorylation – biochemical, W721R variant, dose response (AID 504729)", "format": "functional"}}, "note": "The source made the active and inactive calls.", "data": [{"smiles": "CC1(C)CC(=O)N(CC(=O)O)c2ccccc2S1(=O)=O", "values": [{"measurement": "IC50", "setting": "[1]", "value": "> 100 µM (not active)"}, {"measurement": "IC50", "setting": "[2]", "value": "> 100 µM (inactive)"}]}, {"smiles": "OCCOCCn1c(C2CCCN2c2nc(-c3ccc(F)cc3)cs2)nc2cc(Cl)c(Cl)cc21", "note": "(stereo unspecified)", "values": [{"measurement": "CC50", "setting": "[3]", "value": "37.6 µM (active)"}, {"measurement": "AC50", "setting": "[4]", "value": "6.11 µM (active)"}]}, {"smiles": "CCOc1ccc(NC(=O)c2ccccc2OCC(=O)c2ccccc2)cc1", "values": [{"measurement": "IC50", "setting": "[5]", "value": "1.74 µM (active)"}]}, {"smiles": "Cc1ccc(N(C)C(=O)c2cc(S(=O)(=O)N3CCc4ccccc43)cn2C)cc1", "values": [{"measurement": "IC50", "setting": "[5]", "value": "0.769 µM (active)"}]}, {"smiles": "CC(C)[C@@]1(NC(=O)[C@H]2C[C@H]3c4cccc5[nH]cc(c45)C[C@@H]3N(C)C2)O[C@]2(O)[C@H]3CCCN3C(=O)[C@H](Cc3ccccc3)N2C1=O", "values": [{"measurement": "AC50", "setting": "Cytochrome P450 2D6 [6]", "value": "31.6 µM (inconclusive)"}]}, {"smiles": "COc1ccc(OCC2CC3C(CCC(C)C3c3ccc(Br)cc3)C(=O)O2)cc1", "note": "(stereo unspecified)", "values": [{"measurement": "AC50", "setting": "Cytochrome P450 2D6 [6]", "value": "7.94 µM (inconclusive)"}]}, {"smiles": "COCc1cc(O)nc(Nc2nc3ccccc3o2)n1", "values": [{"measurement": "IC50", "setting": "cells", "value": "1.85 µM (active)"}, {"measurement": "CC50", "setting": "[7]", "value": "16 µM (active)"}, {"measurement": "CC50", "setting": "[8]", "value": "19.4 µM (active)"}, {"measurement": "IC50", "setting": "Nonstructural protein 1", "value": "10.8 µM (active)"}, {"measurement": "CC50", "setting": "[9]", "value": "7.52 µM (active)"}, {"measurement": "EC50", "setting": "[10]", "value": "2.21 µM (active)"}, {"measurement": "EC50", "setting": "Streptococcus", "value": "9.09 µM (active)"}, {"measurement": "CC50", "setting": "[11]", "value": "16.8 µM (active)"}]}, {"smiles": "O=C1C=C(c2cccs2)CC(c2cccs2)C1n1cnc([N+](=O)[O-])c1", "note": "(stereo unspecified)", "values": [{"measurement": "EC50", "setting": "[12]", "value": "20.7 µM (not active)"}, {"measurement": "EC50", "setting": "[13]", "value": "18.5 µM (inactive)"}, {"measurement": "AC50", "setting": "Cytochrome P450 2D6 [14]", "value": "15.8 µM (inconclusive)"}, {"measurement": "EC50", "setting": "[15]", "value": "> 79.4 µM (not active)"}]}, {"smiles": "CC(C)Nc1nnc(SCC(=O)Nc2ccc3c(c2)C(=O)c2ccccc2C3=O)s1", "values": [{"measurement": "IC50", "setting": "Hexokinase HKDC1", "value": "29.7 µM (inactive)"}]}]}
